Article PMC6934184, “Selective DNA-PKcs inhibition extends the therapeutic index of localized radiotherapy and chemotherapy” (The Journal of Clinical Investigation, 2019)

Biological target: T1, ROCK2 (Homo sapiens, UniProt O75116)
T1 construct: purchased Thermo Fisher Scientific (Life Technologies) SelectScreen
Experiment: SelectScreen Z'LYTE
Type: biochemical
In short: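 Percent values come from Thermo SelectScreen profiling of NU5455, combining activity and binding assays. CSF1R was run in Z'LYTE format at Km app ATP, and CAMK1 in Adapta format with ATP listed at 10.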

T1 sequence (O75116 whole entry): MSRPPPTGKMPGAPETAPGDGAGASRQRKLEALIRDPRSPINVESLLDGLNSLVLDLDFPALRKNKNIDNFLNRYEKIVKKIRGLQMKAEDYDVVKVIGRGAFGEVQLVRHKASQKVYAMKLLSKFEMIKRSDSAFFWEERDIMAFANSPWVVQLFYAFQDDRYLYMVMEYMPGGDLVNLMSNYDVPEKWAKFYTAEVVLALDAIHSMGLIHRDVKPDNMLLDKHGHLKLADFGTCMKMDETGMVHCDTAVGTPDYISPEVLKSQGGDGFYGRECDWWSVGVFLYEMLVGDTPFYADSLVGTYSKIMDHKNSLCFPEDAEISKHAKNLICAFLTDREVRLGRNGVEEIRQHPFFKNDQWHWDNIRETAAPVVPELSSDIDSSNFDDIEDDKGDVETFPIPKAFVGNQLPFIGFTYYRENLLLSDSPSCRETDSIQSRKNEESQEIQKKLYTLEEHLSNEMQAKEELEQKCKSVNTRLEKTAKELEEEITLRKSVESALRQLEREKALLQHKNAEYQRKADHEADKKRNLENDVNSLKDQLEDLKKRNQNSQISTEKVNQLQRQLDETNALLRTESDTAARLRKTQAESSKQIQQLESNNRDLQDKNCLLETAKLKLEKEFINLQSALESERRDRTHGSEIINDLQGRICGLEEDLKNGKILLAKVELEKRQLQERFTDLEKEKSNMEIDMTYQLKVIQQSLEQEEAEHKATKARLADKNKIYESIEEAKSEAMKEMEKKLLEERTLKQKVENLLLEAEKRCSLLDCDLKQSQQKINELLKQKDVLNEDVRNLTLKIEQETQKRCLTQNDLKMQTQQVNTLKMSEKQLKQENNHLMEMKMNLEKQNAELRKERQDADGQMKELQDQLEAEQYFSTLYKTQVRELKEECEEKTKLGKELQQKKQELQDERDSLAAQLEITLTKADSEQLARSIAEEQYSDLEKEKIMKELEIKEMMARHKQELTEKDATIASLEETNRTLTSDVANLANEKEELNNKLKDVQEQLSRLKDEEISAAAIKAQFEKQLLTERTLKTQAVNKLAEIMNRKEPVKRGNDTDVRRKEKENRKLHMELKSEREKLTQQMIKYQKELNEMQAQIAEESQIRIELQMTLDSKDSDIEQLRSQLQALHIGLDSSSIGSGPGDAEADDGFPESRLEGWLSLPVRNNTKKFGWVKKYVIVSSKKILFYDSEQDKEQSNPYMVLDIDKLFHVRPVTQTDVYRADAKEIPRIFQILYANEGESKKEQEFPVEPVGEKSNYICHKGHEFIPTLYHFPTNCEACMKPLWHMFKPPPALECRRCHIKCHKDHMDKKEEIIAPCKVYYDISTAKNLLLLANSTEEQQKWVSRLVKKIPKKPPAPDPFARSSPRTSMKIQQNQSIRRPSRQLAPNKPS

CN(C(=O)CN1CCOCC1)c1ccc2sc3c(-c4cccc5c(=O)cc(N6CC7CCC(C6)O7)oc45)cccc3c2c1 [NU5455]
inhibition at 1 µM: -4.1%
